pIC50: −log10 of the molar value. Where two headings read alike, the source gives them in different places.

For orientation: pIC50 means the IC50 on a negative log10 scale, so that one unit is a factor of ten.

Format in all cases: cell-based
Test [1] has as its system Hep G2 cells. Kind of test: MTT assay (mitochondrial metabolism). As to conditions: Homo sapiens, read-out: IC50 MTT assay. The source says:
(§1) MTT assay is the most commonly used method for high-throughput identification of the antiproliferative effects of compounds on cultured cells and is indirectly correlated with mitochondria-dependent apoptosis progression[59]–[61]. The production of reducing equivalents such as NADH in metabolically active cells is an indicator of “cell redox activity”, indirectly reflecting the number of viable cells[60],[61] and the mitochondrial metabolic rate in cells[62],[63].
(§2) A549, Caco-2, HepG2 and TelCOFS02MA cells (1 × 10^4 cells/well), and MDA-MB-231 cells (0.5 × 10^4 cells/well) were seeded in 100 µL of fresh medium into 96-well plates (TC-Plate 96 wells, Sarstedt, Verona, Italy) in quadruplicate for 24 h at 37 °C in a humidified atmosphere of 95% air plus 5% CO2. Then, the medium was removed and replaced with 200 µL of media with different concentrations of CBD (5–80 µM, dilution factor [DF] equal to 2) and CBDV (5.5–88 µM, DF = 2) chosen on the basis of range-finding tests (0.5, 5, and 50 mg/L). We chose 1.56–25 mg/L to be tested and, to make easier the comparison between the two cannabinoids activities, the concentrations were reported in [μM]. In all experiments, negative controls (wells containing cells exposed only to the medium) and solvent controls (wells containing cells exposed to 2.5% methanol) were included. The plates were incubated at 37 °C for three exposure times: 24, 48 and 72 h (different plates were prepared for each specific time point). Then, MTT solution (5 mg/mL) was added to each well, and the plates were re-incubated for 4 h at 37 °C. The culture medium was removed, and 2-propanol was used to dissolve formazan crystals. The absorbance of formazan was measured spectrophotometrically at 590 nm using an automated microplate reader (Synergy H1, Biotek, Winooski, USA). The results are reported as the percentages of cells with inhibited proliferation, as determined by the link between the inhibition of mitochondrial metabolic activity and proliferation. The results were calculated with the following formula:1 IC%=1-OD590sample/OD590negativecontrol·100
(§3) Furthermore, IC50 values (concentrations of the sample used to obtain an inhibition of 50% of cell growth/metabolic activity) were calculated.
(§4) All results from five independent experiments are expressed as the IC50 or EC50 as determined by analysis with Prism 5 software (GraphPad Inc., San Diego, CA, USA) and nonlinear regression (log agonist vs. normalized response-variable slope) with a 95% confidence range. Lowest observed adverse effect concentrations (LOAECs) were calculated by one-way ANOVA and Dunnett’s comparison test. Differences compared to the controls were considered significant as follows: *p < 0.05, **p < 0.001 and ***p < 0.0001.
In general terms: Formazan colour is commonly taken as a measure of viable cells.

The subject of test [2] is A549 cells. Briefly: MTT assay (mitochondrial metabolism). As to conditions: Homo sapiens, read-out: IC50 MTT assay.
Excerpt: as §1, §2, §3, §4

The subject of test [3] is MDA-MB-231 cells. Kind of test: BrdU-ELISA (DNA synthesis inhibition). The note with it: Homo sapiens, read-out: IC50 BrdU-ELISA. The procedure:
(§5) BrdU-ELISA was performed according to the protocol described by Lehmann and collaborators, and the results were used to evaluate the inhibition of DNA synthesis. A total of 1 × 10^4 cells/well were seeded in 100 µL of fresh medium into 96-well plates in triplicate at 37 °C in a humidified atmosphere of 95% air plus 5% CO2 for 24 h. Then, the medium was removed and replaced with 200 µL of medium with the same concentrations of CBD and CBDV that had been used in the previous test. In all experiments, blanks (wells with medium and without cells), negative controls (with only medium) and solvent controls (2.5% methanol) were included. The plates were incubated at 37 °C for 72 h. Then, 20 µL of 100 µM BrdU labelling solution was added to each well and incubated for 2 h at 37 °C. After removing the labelling solution, 200 µl of DNA fixing/denaturing solution was added to each well and incubated for 30 min at room temperature. After its discharge, 100 µL of the anti-BrdU-POD antibody solution [0.075 U/mL] was added to each well and incubated for 90 min at room temperature. After several washing steps with 1X PBS (200–300 µL/well), 100 µl of tetramethylbenzidine (TMB) was added to each well and incubated for 20–30 min (sufficient time for the colour change). The incorporation of BrdU into DNA was quantified spectrophotometrically at 370 nm. […] The mean absorbance of the control cells represented 100% cell proliferation, and the mean absorbance of the treated cells was related to the control values to determine cell sensitivity. Inhibition (%) of DNA synthesis/cell viability was determined as follows:2 IC%=1-OD370sample/OD370negativecontrol·100
(§6) IC50 values (representing the median concentration at which DNA synthesis and cell viability were reduced by 50%) were calculated.
as §4
For orientation: An ELISA detects its analyte on a solid surface through an enzyme-linked reagent.

Test [4] deals with A549 cells. Briefly: BrdU-ELISA (DNA synthesis inhibition). The note with it: Homo sapiens, read-out: IC50 BrdU-ELISA. As for the experimental part:
as §5, §6, §4

Test [5] has as its system Escherichia coli (ATCC 13762). Kind of test: Microbial susceptibility test (growth inhibition). The note with it: read-out: IC50 bacterial growth inhibition. The procedure: (§7) Escherichia coli (ATCC 13762) and S. aureus (ATCC 6538) were cultured overnight in tryptic soy broth and soybean-casein digestive medium (TSB, Oxoid, Milano, Italy) at 37 °C[70]. Subsequently, using 96-well plates (Sarstedt, Italy), 100 µL of TSB, 100 µL of CBD (5–160 µM, DF = 2) or CBDV (5.46–175 µM, DF = 2) and 100 µL of the bacterial culture corresponding to 1 × 10^4 CFU were added sequentially to each well. CBD and CBDV final concentrations in wells equal to 1.66–53 and 1.82–58.19 µM, respectively, were chosen on the basis of range-finding tests. TSB alone was used as the blank, physiologic solution (0.9% NaCl) was used as the negative control, methanol 5% v/v (final percentage in wells equal to 1.6% v/v) was used as the solvent control, and streptomycin at 60 µM (final concentration in the well equal to 20 µM) was used as the positive control. Experiments were conducted in sextuplicate. The plates were covered with sterile film to prevent evaporation and incubated at 37 °C. After 24, 48 and 72 h, the optical density of each well was recorded at 620 nm using a microplate reader. The bacterial growth inhibition percentage (IC%) was determined as follows:7 IC%=1-OD620testsample-OD620blank/OD620negativecontrol-OD620blank·100
as §4

The subject of test [6] is S. aureus (ATCC 6538). Kind of test: Microbial susceptibility test (growth inhibition). The note with it: Staphylococcus aureus, read-out: IC50 bacterial growth inhibition. As for the experimental part:
as §7, §4

The mark [7] stands for this setting: A549, 72 h exposure, 95% confidence interval in brackets.

In the case of `C=C(C)[C@@H]1CCC(C)=C[C@H]1c1c(O)cc(CCCCC)cc1O` [CBD, Cannabidiol], the negative logarithm of the IC50 (pIC50) in test [1] (HepG2, Hep G2, 72 h exposure, 95% confidence interval in brackets) was 4.80; in test [2] (setting [7]), 4.56; in test [3] (MDA-MB-231, 72 h exposure, 95% confidence interval in brackets), 4.42; in test [4] (setting [7]) it was 4.39; in test [5] (ATCC13762, E. coli, 72 h of incubation, 95% confidence range in brackets), 4.54; in test [6] (ATCC6538, S. aureus, 24 h of exposure, 95% confidence range in brackets), 4.99. For the same compound, the negative-log IC50 (pIC50) in test [6] (ATCC6538, S. aureus, 48 h of exposure, 95% confidence range in brackets) is 5.31; in test [6] (ATCC6538, S. aureus, 72 h of exposure, 95% confidence range in brackets) it was 5.74.

Turning to `C=C(C)[C@@H]1CCC(C)=C[C@H]1c1c(O)cc(CCC)cc1O` [CBDV, cannabidivarin], the pIC50 was 4.70 in test [1] (HepG2, 72 h); 4.48 in test [2] (A549, 72 h); 4.33 in test [3] (MDA-MB-231, 72 h); 4.31 in test [4] (A549, 72 h); 4.45 in test [5] (ATCC13762, 72 h); 4.51 in test [6] (ATCC6538, 72 h).

The record behind these values is PMC8602723, “Comparative assessment of antimicrobial, antiradical and cytotoxic activities of cannabidiol and its propyl analogue cannabidivarin” (Scientific Reports, 2021).
